Data set [1] in a line: Plasma pharmacokinetics of ARQ 501 (β-lapachone) after intravenous ARQ 761 (UHPLC-MS/MS, two-compartment model). Type of data set: in vivo, human. The following applies: plasma ARQ 501 after ARQ 761 infusions.
Experimental: During the first and fourth infusions of study drug, serial blood samples for determination of plasma ARQ 501 levels were drawn at the following time points: pre-infusion, infusion start, 15 min, 30 min, 60 min, 120 min (for the 2-h infusion cohort), 15 min post-infusion, 1 h post-infusion, 3 h post-infusion, 5 h post-infusion, 24 h post-infusion, 48 h post-infusion, and 168 h post-infusion. ARQ 501 plasma concentrations were determined using an ultra-high-performance liquid chromatography tandem mass spectrometric analytical method. This method utilised a Nexera Series UHPLC system (Shimadzu Corporation, Kyoto, Japan), which was interfaced with a Sciex QTRAP 5500 mass spectrometer (Foster City, CA, USA).
Sample preparation included a liquid–liquid extraction of ARQ 501 and the internal standard dihydrotanshone (IS) from plasma. Briefly, 100 µL of a 700 ng/mL solution of IS in methanol:acetonitrile (3:1) was added to a 2-mL Eppendorf tube and spun to dryness on a CentriVap benchtop vacuum concentrator (Labconco, Kansas City, USA). To the dried tube, 25-µL aliquots of plasma, 25-µL of blank plasma, and 200-µL de-ionised water were added and vortex mixed. To the resultant solution, a 1-mL aliquot of methyl tert-butyl ether:ethyl acetate (1:1) was added. The mixture was shaken for 10 min at 2500 rpm on a VWR shaker. Samples were then centrifuged for 10 min at 4000 rpm at 4.0 °C. […]
The conditions of data set [2]: cited from earlier work.
On the set-up of data set [3]: method as in PMID 22532167. The following applies: animal models; cited from earlier work.

Each structure is given as a SMILES string.

In the case of `CC1(C)CCC2=C(O1)c1ccccc1C(=O)C2=O` [ARQ 501, β-lapachone], the “Accumulation, Dose 1 vs. Dose 4” value in data set [1] is given as “does not accumulate to any appreciable extent”. Besides, the “Predominant dose-limiting toxicity (DLT)” value in data set [2] is “haemolytic anaemia”. For the same molecule, the MTD in data set [2] (earlier ARQ 501 compound, no reference given) is 390 mg/m^2. The Duration of methemoglobinaemia in data set [3] was 5 min.

Values taken from article PMC6203852 (British Journal of Cancer, 2018).
